{
  "source": "patent US20240139211A1",
  "about": "“METHODS AND COMPOSITIONS FOR TREATING AMYOTROPHIC LATERAL SCLEROSIS” (Amylyx Pharmaceuticals, Inc., priority 2022, published 2024)",
  "key": {"OAT3": {"molecular_target": "T1, OAT3 (Homo sapiens, UniProt Q8TCC7)", "T1 sequence (Q8TCC7 1-542)": "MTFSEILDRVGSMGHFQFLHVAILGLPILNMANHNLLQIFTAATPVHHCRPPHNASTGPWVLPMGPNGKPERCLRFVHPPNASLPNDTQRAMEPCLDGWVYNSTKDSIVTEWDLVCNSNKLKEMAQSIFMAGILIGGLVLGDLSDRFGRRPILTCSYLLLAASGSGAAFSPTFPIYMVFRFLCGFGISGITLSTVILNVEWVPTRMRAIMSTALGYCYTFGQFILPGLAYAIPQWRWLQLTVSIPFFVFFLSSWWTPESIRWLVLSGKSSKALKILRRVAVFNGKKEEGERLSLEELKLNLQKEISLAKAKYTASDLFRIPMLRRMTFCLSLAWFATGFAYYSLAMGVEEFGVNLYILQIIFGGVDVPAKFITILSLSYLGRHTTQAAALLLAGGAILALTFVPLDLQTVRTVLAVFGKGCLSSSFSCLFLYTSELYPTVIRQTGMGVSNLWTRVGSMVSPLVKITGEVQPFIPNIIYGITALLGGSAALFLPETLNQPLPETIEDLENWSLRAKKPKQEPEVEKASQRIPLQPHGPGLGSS", "experiment": "in vitro"}, "OATP1B1": {"molecular_target": "OATP1B1 (Homo sapiens, UniProt Q9Y6L6)", "sequence (Q9Y6L6 whole entry)": "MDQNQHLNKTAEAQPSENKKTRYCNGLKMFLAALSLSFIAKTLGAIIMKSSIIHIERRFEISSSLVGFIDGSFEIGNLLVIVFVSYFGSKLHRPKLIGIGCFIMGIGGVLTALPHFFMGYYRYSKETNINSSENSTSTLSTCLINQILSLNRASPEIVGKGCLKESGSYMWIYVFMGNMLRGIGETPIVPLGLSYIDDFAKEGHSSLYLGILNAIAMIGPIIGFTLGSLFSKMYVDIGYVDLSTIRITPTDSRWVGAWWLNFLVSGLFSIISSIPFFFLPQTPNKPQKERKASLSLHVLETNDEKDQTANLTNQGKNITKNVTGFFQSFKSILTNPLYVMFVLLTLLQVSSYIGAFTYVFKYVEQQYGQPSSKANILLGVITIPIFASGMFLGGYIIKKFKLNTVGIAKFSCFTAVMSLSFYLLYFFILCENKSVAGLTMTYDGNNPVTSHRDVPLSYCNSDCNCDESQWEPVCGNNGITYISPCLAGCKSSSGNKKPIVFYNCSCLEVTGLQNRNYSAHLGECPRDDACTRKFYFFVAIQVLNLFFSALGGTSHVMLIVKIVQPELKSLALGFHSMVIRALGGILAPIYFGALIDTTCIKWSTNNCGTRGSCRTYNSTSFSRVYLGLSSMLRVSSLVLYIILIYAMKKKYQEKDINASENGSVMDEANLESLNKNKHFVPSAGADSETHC", "experiment": "in vitro"}, "P-gp": {"molecular_target": "P-gp (Homo sapiens, UniProt P08183)", "sequence (P08183 whole entry)": "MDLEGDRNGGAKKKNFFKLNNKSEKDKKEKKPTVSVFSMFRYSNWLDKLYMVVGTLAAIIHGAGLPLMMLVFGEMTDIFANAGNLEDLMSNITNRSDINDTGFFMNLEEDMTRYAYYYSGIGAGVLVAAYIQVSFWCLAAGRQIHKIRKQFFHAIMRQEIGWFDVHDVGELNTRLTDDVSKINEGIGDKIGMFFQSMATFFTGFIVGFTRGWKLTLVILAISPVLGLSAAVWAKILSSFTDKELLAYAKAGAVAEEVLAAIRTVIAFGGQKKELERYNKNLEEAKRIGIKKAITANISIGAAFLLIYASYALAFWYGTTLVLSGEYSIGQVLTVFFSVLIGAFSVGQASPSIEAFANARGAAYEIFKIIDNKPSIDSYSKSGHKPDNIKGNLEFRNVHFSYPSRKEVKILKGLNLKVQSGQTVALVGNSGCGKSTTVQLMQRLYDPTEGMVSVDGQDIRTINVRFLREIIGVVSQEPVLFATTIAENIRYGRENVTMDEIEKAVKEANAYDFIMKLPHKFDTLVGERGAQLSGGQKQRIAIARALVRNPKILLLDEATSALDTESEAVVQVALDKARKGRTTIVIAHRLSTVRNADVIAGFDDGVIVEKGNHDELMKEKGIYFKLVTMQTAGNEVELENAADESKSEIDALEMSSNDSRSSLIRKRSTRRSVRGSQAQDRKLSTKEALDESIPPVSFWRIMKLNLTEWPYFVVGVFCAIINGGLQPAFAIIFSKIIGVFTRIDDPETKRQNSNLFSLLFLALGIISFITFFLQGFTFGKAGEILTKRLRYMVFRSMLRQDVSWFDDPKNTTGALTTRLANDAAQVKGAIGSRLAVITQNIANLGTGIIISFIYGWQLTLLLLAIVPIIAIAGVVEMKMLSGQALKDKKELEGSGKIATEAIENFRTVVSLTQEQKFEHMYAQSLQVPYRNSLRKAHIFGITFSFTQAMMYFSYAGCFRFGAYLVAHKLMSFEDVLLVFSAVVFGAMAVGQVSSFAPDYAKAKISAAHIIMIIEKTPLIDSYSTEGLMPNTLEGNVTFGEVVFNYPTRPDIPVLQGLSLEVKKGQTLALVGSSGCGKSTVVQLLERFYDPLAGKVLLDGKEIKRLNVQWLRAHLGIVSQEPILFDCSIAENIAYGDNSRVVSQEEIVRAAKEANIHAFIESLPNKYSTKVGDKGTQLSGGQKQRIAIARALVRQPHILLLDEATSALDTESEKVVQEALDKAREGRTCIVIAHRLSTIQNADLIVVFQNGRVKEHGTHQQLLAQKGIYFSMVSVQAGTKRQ", "experiment": "in vitro"}, "CYP2B6 mRNA": {"tested_on": "CYP2B6 mRNA", "experiment": "in vitro", "conditions": "human"}, "OCT2 [1]": {"molecular_target": "T2, OCT2 (Homo sapiens, UniProt O15244)", "T2 sequence (O15244 1-555)": "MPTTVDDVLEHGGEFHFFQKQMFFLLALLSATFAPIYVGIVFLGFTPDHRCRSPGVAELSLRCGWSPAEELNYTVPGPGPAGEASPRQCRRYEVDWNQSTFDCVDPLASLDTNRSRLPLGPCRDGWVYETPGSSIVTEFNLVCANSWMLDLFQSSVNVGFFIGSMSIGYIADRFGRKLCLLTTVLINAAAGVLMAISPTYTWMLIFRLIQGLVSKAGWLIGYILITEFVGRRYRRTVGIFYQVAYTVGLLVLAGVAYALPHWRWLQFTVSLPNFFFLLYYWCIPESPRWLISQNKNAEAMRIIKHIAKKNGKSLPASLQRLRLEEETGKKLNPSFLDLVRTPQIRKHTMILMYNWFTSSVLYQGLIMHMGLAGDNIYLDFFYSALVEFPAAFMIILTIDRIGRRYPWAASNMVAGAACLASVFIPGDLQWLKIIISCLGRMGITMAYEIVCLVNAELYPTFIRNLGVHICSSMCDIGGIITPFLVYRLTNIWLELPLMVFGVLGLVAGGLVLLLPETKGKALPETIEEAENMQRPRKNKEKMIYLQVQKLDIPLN", "experiment": "Inhibitor of OCT2, probe substrate uptake", "conditions": "for Inhibition of OCT2 / Inhibitor of OCT2: two concentrations per test article"}, "CYP1A2 mRNA": {"tested_on": "CYP1A2 mRNA", "experiment": "CYP1A2 gene expression induction in hepatocyte cultures", "conditions": "for Emax, CYP1A2 gene expression: Donor 1; for Inducer of CYP1A2 (conclusion): gene expression and enzyme activity, three donors"}, "hrCYP1A2": {"molecular_target": "T3, hrCYP1A2 (Homo sapiens, UniProt P05177)", "T3 sequence (P05177 1-516)": "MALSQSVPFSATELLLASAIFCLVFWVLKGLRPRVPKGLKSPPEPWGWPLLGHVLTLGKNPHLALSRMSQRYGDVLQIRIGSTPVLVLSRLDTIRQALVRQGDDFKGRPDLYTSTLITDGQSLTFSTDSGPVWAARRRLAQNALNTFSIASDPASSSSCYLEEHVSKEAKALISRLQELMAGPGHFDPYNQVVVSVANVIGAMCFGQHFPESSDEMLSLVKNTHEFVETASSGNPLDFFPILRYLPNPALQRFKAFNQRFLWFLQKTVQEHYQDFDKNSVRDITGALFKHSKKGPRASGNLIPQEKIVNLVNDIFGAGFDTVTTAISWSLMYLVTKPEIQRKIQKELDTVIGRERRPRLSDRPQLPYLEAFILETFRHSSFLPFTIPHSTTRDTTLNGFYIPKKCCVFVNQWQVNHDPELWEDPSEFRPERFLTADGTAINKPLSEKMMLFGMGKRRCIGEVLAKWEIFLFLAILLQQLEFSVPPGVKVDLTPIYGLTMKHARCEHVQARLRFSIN", "experiment": "CYP reaction phenotyping with hrCYP1A2 (% remaining)", "assay_type": "in vitro ADME", "conditions": "for % Remaining of TA: hrCYP1A2 20 pmol CYP/mL, 5 μM TA, PB and TUDCA co-incubated"}, "[2]": {"molecular_target": "CYPs in human liver microsomes (HLM) (Homo sapiens, UniProt P10635)", "sequence (P10635 whole entry)": "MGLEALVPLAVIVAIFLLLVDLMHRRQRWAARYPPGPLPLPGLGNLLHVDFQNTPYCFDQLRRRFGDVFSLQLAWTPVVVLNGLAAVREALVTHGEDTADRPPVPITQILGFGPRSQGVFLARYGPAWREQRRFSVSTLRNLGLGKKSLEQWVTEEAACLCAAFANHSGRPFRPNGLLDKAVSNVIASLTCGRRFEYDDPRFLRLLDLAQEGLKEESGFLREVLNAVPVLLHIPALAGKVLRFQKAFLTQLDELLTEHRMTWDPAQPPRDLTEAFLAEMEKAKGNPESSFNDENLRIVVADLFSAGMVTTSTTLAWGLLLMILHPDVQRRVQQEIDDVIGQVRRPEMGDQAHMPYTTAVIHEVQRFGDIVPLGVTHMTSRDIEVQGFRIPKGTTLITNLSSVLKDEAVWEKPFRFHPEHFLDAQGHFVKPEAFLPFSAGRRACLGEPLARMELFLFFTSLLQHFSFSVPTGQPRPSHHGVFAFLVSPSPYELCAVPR", "experiment": "CYP reaction phenotyping in HLM with chemical inhibitors (% remaining)", "conditions": "+NADPH +quinidine (CYP2D6)"}, "OCT2 [3]": {"molecular_target": "T2, OCT2", "experiment": "Substrate of OCT2, uptake in HEK293 cells", "text": "(§1) Vector-transfected HEK cells were used as a control."}, "MATE1": {"molecular_target": "T4, MATE1 (Homo sapiens, UniProt Q96FL8)", "T4 sequence (Q96FL8 1-570)": "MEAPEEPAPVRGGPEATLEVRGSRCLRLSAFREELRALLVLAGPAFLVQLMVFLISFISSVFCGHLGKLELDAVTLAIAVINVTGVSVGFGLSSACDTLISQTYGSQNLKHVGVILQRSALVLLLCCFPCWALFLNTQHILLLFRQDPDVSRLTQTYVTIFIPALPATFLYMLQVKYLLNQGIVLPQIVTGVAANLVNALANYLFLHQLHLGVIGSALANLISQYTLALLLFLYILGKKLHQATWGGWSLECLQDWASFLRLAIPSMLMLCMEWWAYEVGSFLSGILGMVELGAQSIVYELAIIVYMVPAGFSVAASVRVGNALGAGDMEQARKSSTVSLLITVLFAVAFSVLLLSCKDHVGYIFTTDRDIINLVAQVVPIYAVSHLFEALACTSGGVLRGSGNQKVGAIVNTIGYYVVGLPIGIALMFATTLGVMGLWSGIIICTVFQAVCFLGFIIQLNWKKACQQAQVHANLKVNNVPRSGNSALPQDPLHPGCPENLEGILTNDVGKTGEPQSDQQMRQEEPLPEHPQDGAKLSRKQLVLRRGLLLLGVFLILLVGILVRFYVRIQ", "experiment": "Substrate of MATE1, uptake in HEK293 cells", "text": "as §1"}},
  "note": "Where two headings read alike, the source gives them in different places.",
  "data": [
    {"compound": "C[C@H](CCC(=O)NCC(=O)O)[C@H]1CC[C@H]2[C@@H]3[C@@H](O)C[C@@H]4C[C@H](O)CC[C@]4(C)[C@H]3CC[C@]12C", "note": "[Glycoursodeoxycholic acid, glycoursodeoxycholic acid]", "values": [
      {"measurement": "potency estimated from few doses", "setting": "OAT3", "value": "< 100", "unit": "µM"},
      {"measurement": "potency estimated from few doses", "setting": "OATP1B1", "value": "~10", "unit": "µM"},
      {"measurement": "potency estimated from few doses", "setting": "P-gp; Caco-2 cells, probe 3H-digoxin", "value": "< 10", "unit": "µM"},
      {"measurement": "EC50 at 72 h", "setting": "CYP2B6 mRNA; hepatocyte cultures", "value": 1.74, "unit": "µM"},
      {"measurement": "fold induction at 72 h", "setting": "CYP2B6 mRNA; hepatocyte cultures", "value": 5.83},
      {"measurement": "Inhibition of OCT2", "setting": "OCT2 [1]", "value": "did not inhibit"},
      {"measurement": "Inhibitor of OCT2", "setting": "OCT2 [1]", "value": "No"},
      {"measurement": "Emax, CYP1A2 gene expression", "setting": "CYP1A2 mRNA", "value": 11.7, "unit": "fold"},
      {"measurement": "Maximum fold induction of CYP1A2 gene expression", "setting": "CYP1A2 mRNA; Donor 2", "value": 13.0, "unit": "fold"},
      {"measurement": "Maximum fold induction of CYP1A2 gene expression", "setting": "CYP1A2 mRNA; Donor 3", "value": 7.83, "unit": "fold"},
      {"measurement": "Inducer of CYP1A2 (conclusion)", "setting": "CYP1A2 mRNA", "value": "as an inducer"}
    ]},
    {"compound": "O=C(O)CCCc1ccccc1", "note": "[PB, sodium phenylbutyrate]", "values": [
      {"measurement": "% remaining after 60 minutes", "setting": "hrCYP1A2; human, 1 h, 5 µM, pH 7.4", "value": "greater than 90%"},
      {"measurement": "potency estimated from few doses", "setting": "OAT3", "value": "< 25", "unit": "µM"},
      {"measurement": "Inhibition of OCT2", "setting": "OCT2 [1]", "value": "did not inhibit"},
      {"measurement": "Inhibitor of OCT2", "setting": "OCT2 [1]", "value": "No"},
      {"measurement": "% remaining of TA in HLM", "setting": "[2]; 20 min", "value": 97.5, "unit": "%"},
      {"measurement": "% remaining of TA in HLM", "setting": "[2]; 60 min", "value": 98.8, "unit": "%"}
    ]},
    {"compound": "O=C(O)Cc1ccccc1", "note": "[Phenylacetic acid, phenylacetic acid]", "values": [
      {"measurement": "Substrate of OCT2", "setting": "OCT2 [3]; 1 and 10 μM", "value": "not a substrate"},
      {"measurement": "Substrate of OCT2", "setting": "OCT2 [3]; test article 1 and 10 μM", "value": "No"},
      {"measurement": "Substrate of MATE1", "setting": "MATE1; 1 and 10 μM", "value": "not a substrate"},
      {"measurement": "Substrate of MATE1", "setting": "MATE1; test article 1 and 10 μM", "value": "No^a"},
      {"measurement": "potency estimated from few doses", "setting": "OATP1B1", "value": "> 7500", "unit": "µM"},
      {"measurement": "potency estimated from few doses", "setting": "P-gp", "value": "> 7500", "unit": "µM"},
      {"measurement": "EC50 at 72 h", "setting": "CYP2B6 mRNA", "value": 19.5, "unit": "µM"},
      {"measurement": "Uptake activity remaining, OCT2", "setting": "OCT2 [1]; 7500 μM", "value": 24.5, "unit": "%"},
      {"measurement": "potency estimated from few doses", "setting": "OCT2 [1]; read-out: Estimated IC50, OCT2, estimated from two concentrations", "value": "< 7500", "unit": "µM"},
      {"measurement": "Inhibition of OCT2", "setting": "OCT2 [1]", "value": "inhibited"},
      {"measurement": "Inhibitor of OCT2", "setting": "OCT2 [1]", "value": "Yes"},
      {"measurement": "Emax, CYP1A2 gene expression", "setting": "CYP1A2 mRNA", "value": 3.32, "unit": "fold"}
    ]},
    {"compound": "tauroursodeoxycholic acid [TUDCA]", "values": [
      {"measurement": "% Remaining of TA", "setting": "hrCYP1A2; 0 min", "value": 100, "unit": "%"},
      {"measurement": "% Remaining of TA", "setting": "hrCYP1A2; 5 min", "value": 98.0, "unit": "%"},
      {"measurement": "% Remaining of TA", "setting": "hrCYP1A2; 10 min", "value": 101, "unit": "%"},
      {"measurement": "% Remaining of TA", "setting": "hrCYP1A2; 20 min", "value": 99.9, "unit": "%"},
      {"measurement": "% Remaining of TA", "setting": "hrCYP1A2; 30 min", "value": 103, "unit": "%"},
      {"measurement": "% Remaining of TA", "setting": "hrCYP1A2; 60 min", "value": 90.5, "unit": "%"},
      {"measurement": "Substrate of OCT2", "setting": "OCT2 [3]; 1 and 10 μM", "value": "not a substrate"},
      {"measurement": "Substrate of OCT2", "setting": "OCT2 [3]; test article 1 and 10 μM", "value": "No"},
      {"measurement": "Substrate of MATE1", "setting": "MATE1; 1 and 10 μM", "value": "not a substrate"},
      {"measurement": "Substrate of MATE1", "setting": "MATE1; test article 1 and 10 μM", "value": "No"},
      {"measurement": "Inhibition of OCT2", "setting": "OCT2 [1]", "value": "did not inhibit"},
      {"measurement": "Inhibitor of OCT2", "setting": "OCT2 [1]", "value": "No"},
      {"measurement": "Inducer of CYP1A2 (conclusion)", "setting": "CYP1A2 mRNA", "value": "did not meet the classification requirements to be identified as an inducer"},
      {"measurement": "% remaining of TA in HLM", "setting": "[2]; 10 min", "value": 110, "unit": "%"},
      {"measurement": "% remaining of TA in HLM", "setting": "[2]; 20 min", "value": 99.7, "unit": "%"},
      {"measurement": "% remaining of TA in HLM", "setting": "[2]; 60 min", "value": 87.2, "unit": "%"}
    ]},
    {"compound": "ursodeoxycholic acid", "values": [
      {"measurement": "Substrate of OCT2", "setting": "OCT2 [3]; 1 and 10 μM", "value": "not a substrate"},
      {"measurement": "Substrate of OCT2", "setting": "OCT2 [3]; test article 1 and 10 μM", "value": "No"},
      {"measurement": "Substrate of MATE1", "setting": "MATE1; 1 and 10 μM", "value": "not a substrate"},
      {"measurement": "Substrate of MATE1", "setting": "MATE1; test article 1 and 10 μM", "value": "No"},
      {"measurement": "Inhibition of OCT2", "setting": "OCT2 [1]", "value": "did not inhibit"},
      {"measurement": "Inhibitor of OCT2", "setting": "OCT2 [1]", "value": "No"}
    ]}
  ]
}
